Target: T1, CD209 antigen (Homo sapiens, UniProt Q9NNX6)
T1 sequence (Q9NNX6 whole entry): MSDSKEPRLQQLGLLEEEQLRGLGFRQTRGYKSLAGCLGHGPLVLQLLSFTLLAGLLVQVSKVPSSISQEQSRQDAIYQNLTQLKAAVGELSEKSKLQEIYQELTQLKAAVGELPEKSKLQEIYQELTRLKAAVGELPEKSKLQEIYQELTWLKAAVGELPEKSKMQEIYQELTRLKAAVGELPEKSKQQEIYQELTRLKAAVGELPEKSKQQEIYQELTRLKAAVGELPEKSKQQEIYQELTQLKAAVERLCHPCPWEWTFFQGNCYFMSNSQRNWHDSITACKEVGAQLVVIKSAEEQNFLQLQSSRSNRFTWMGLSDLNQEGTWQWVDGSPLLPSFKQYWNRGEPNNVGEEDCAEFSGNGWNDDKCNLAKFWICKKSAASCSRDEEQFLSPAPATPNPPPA
Assay: Inhibition of binding of immobilized mannosylated BSA to DC-SIGN extracellular domain (66 to 404 residues) (unknown origin) expressed in Escherichia coli by SPR assay

IC50	Structure (SMILES)
720 µM	COC(=O)[C@H]1C[C@H](OC)[C@@H](O[C@H]2O[C@H](CO)[C@@H](O)[C@H](O)[C@@H]2O)C[C@@H]1C(=O)OC
776 µM	COC(=O)[C@H]1C[C@H](OC)[C@@H](S[C@H]2O[C@H](CO)[C@@H](O)[C@H](O)[C@@H]2O)C[C@@H]1C(=O)OC
776 µM	COC(=O)[C@H]1C[C@H](OC(=O)C(C)(C)C)[C@@H](S[C@H]2O[C@H](CO)[C@@H](O)[C@H](O)[C@@H]2O)C[C@@H]1C(=O)OC

From ChEMBL document CHEMBL4043086, “Facile access to pseudo-thio-1,2-dimannoside, a new glycomimetic DC-SIGN antagonist” (Bioorg Med Chem, 2017)
